# According to patent publication US20100234442A1, “Compositions and Methods for Treatment and Prevention of Cardiovascular Disease” (Nucitec S.A. de C.V., priority 2009, published 2010):
# System: hypercholesterolemic patients
# Assay: 8-week, randomized, double-blind, active-controlled, parallel-group study of vascular markers in hypercholesterolemic patients
# Format: in vivo, human
# Method: This was a 8-week, randomized, double-blind, active-controlled, parallel-group study. All patients provided written, informed consent before the start of the study.
# Patients, investigator staff, persons performing the assessment, and data analysts remained blinded to the identity of the treatment from the time of randomization until data base lock. Treatments were all identical in packaging, labeling, schedule of administration and appearance. Treatments were administered to patients via a single pill.
# 20 hypercholesterolemic patients, ≧45 years old, were compared in this study. Patients were classified into one of four groups, consisting of five patients in each group.
# Group I was treated with a single daily dose of simvastatin alone (20 mg). Group II was treated with a single daily dose simvastatin (20 mg) and acetylsalicylic acid (75 mg). Group III was treated with a single daily dose of simvastatin (20 mg) and enalapril (10 mg). Group IV was treated with a single daily dose of simvastatin (20 mg), acetylsalicylic acid (75 mg), and enalapril (10 mg). All patients were treated for eight weeks.
# The primary efficacy variable was the change from the baseline to the final assessment in vascular markers of LDL-Cholesterol (LDL-C), C Reactive Protein (CRP), Interleukin 6 (IL-6), Systolic Blood Pressure (SBP), and nitric oxide (NO).
# [1] = change from baseline to final, eight weeks
# [2] = final assessment after eight weeks, single daily oral dose
structure (smiles),measurement,setting,value
"CCC(C)(C)C(=O)O[C@H]1C[C@@H](C)C=C2C=C[C@H](C)[C@H](CC[C@@H]3C[C@@H](O)CC(=O)O3)[C@H]21 [Simvastatin alone, simvastatin]",IL-6 Baseline,"baseline, before treatment",4.6 pg/mL
same,Nitric oxide Baseline,"baseline, before treatment",87 µmol/L
same,SBP Baseline,"baseline, before treatment",142 mmHg
same,LDL-C Baseline,"baseline, before treatment, five patients per group",159 mg/dL
same,CRP % Δ,[1],−18%
same,IL-6 % Δ,[1],−39%
same,LDL-C % Δ,[1],−38%
same,Nitric oxide % Δ,[1],−9%
same,SBP % Δ,[1],−0.8%
same,IL-6 Final,[2],2.8 pg/mL
same,LDL-C Final,[2],99 mg/dL
same,Nitric oxide Final,[2],79 µmol/L
same,SBP Final,[2],141 mmHg
